Patent US20150150892A1, “METHODS AND PRODUCTS RELATED TO LUNG CANCER” (Massachusetts Institute of Technology, priority 2012, published 2015)

Legend:
[1] = test system: NF-κB target genes in H2122 and H2009 cell lines; assay: QPCR of NF-κB target genes in human NSCLC cell lines; assay type: cell-based; settings: 10 nM Bortezomib, 24 hours
Description: FIG. 8: Bortezomib inhibits NF-κB signaling in human NSCLC cells. H2122 (KRASG12C;TP53c176F/Q16L) (8A) and H2009 (KRASG12A;TP53R273L) (8B) cell lines were treated with vehicle control or 10 nM Bortezomib for 24 hours. NF-κB target gene expression was measured by QPCR. Error bars are s.d. (n=3). N.D. denotes not detectable. Mutation information is from the Sanger COSMIC database.
RNA was purified using TRIzol (Invitrogen), according to the manufacturer's instructions. One microgram of RNA was reverse transcribed using the High-Capacity cDNA Reverse Transcription Kit (Applied Biosystems). Real-time PCR (quantitative PCR) amplification was performed using Taqman probes (Applied Biosystems). Data were normalized to the Gapdh (mouse) or GAPDH (human) levels.

[2] = test system: Bortezomib-resistant KP cell lines; settings: upon bortezomib treatment; viability 24 hours, colonies 7 days
Description: (12A) Relative cell viability in cell lines treated with increasing doses of Bortezomib for 24 hours. Cells lines were outgrown from Bortezomib resistant orthotopic tumors (resistant 1&2) or sensitive tumors (sensitive) as in FIG. 6C. Error bars are s.d. (n=3). (12B) Colony formation assay in Bortezomib-resistant cells. 104 cells were plated in 6-well plate and treated with indicated drug concentration. Plates were stained 7 days later with crystal violet solution. Drug-containing medium was refreshed every 4 days.
Cells were split into 96-well plates (5,000 cells per well). After 24 hours, cells were treated with bortezomib, and 24 hours later cell viability was measured by the Cell Titer Aqueous Kit (Promega) in triplicates. Vehicle control-treated cell values were set to 1 (100% viability).

[3] = test system: KP lung cancer cells in NCR nu/nu mice; assay: Subcutaneous tumor model, caliper tumor volume; settings: KP cells s.c. in immunocompromised mice
Description: 1×10^6 KP lung cancer cells were injected subcutaneously into NCR nu/nu mice. Tumor volume was quantified by caliper measurements. Treatments started when tumors reached −100 mm^3 (set to 1 in tumor volume axis and 0 days in time axis). Arrows indicate Bortezomib (1 mg/kg) or Cisplatin (7 mg/kg) injections. Error bars are s.d (n=4).
To compare the efficacy of bortezomib to that of other lung cancer therapies, we injected KP lung tumor cells s.c. into immunocompromised mice, allowed tumors to form, and then treated the mice with bortezomib.

KP mice = assay: Kaplan-Meier survival of KP mice; assay type: in vivo, mouse; settings: KP mice, bortezomib 1 mg/kg once a week for 4 weeks from 8 weeks after Adeno-Cre; control 76.8±10.6 days; P=0.001
Description: (5A and 5B) Kaplan-Meier survival curve of vehicle control and bortezomib-treated KP (5A) and K (5B) mice. Arrows indicate weekly 1 mg/kg bortezomib regimen. […] Arrows indicate bortezomib injection.
To initiate lung tumors, cohorts of K or KP mice of 129svJae background were infected with 2.5×10^7 plaque-forming units of Adeno-Cre (University of Iowa) by intranasal inhalation, as described previously (2, 28). Mice were given bortezomib (LC Labs) in PBS [0.5% dimethylsulfoxide (DMSO)] at 1 mg/kg body weight i.v., as indicated.
To analyze the long-term effects of bortezomib therapy, we investigated whether a 4-dose regimen of bortezomib (19) could prolong survival of tumor-bearing mice. Using a cohort of KP mice, we treated tumor-bearing animals 8 weeks after Adeno-Cre infection with bortezomib once a week for 4 weeks (FIG. 10A).

[4] = test system: KrasLSL-G12D/wt;p53flox/flox (KP) lung tumors; assay: MicroCT lung tumor volume in KP mice; assay type: in vivo, mouse
From the text: FIG. 3: Bortezomib induces acute lung tumor regression in KrasLSL-G12D/wt;p53flox/flox (KP) mice, but not in KrasLSL-G12D/wt (K) mice. (3A and 3C) representative microCT images (n=6) of KP (3A) and K (3C) lung tumors prior to pre-treatment (D0) and 4 days (D4) after a single dose of vehicle control or bortezomib. (3 B and 3D) Quantification of tumor volume change (D4 compared with D0) in control- and bortezomib-treated mice. Each bar represents an individual tumor. P<10^−6 in KP mice (3B); P>0.05 in K mice (3D).
FIG. 5: Bortezomib increases survival in KP mice. (5A and 5B) Kaplan-Meier survival curve of vehicle control and bortezomib-treated KP (5A) and K (5B) mice. Arrows indicate weekly 1 mg/kg bortezomib regimen. (5C) quantification of lung tumor volume of control- and bortezomib-treated KP mice. From 10 weeks after Adeno-Cre infection, lungs were imaged by microCT to measure individual tumor volumes (n=4). Data points represent means of fold change and SD relative to 10 weeks (set to 1). Arrows indicate bortezomib injection. D, CC3 staining (×200) in lung tumors receiving 3 doses of control (“C”) and 1 final dose of bortezomib (“B,” left) or 4 doses of bortezomib (right). Tumors were harvested 48 hours after the last treatment (n=4).
The Massachusetts Institute of Technology (Cambridge, Mass.) Institutional Animal Care and Use Committee approved all animal studies and procedures. […]
At indicated time points, mice were scanned for 15 min under isoflurane anesthesia, using a small animal eXplore Locus microCT (GE Healthcare) at 45-μm resolution, 80 kV, with 450-mA current (47). […] Mice were imaged for 60 seconds, and signals in the lung were quantified using Xenogen software.
To understand the relevance of these findings in vivo, we examined bortezomib-mediated NF-κB inhibition in both KP and K models of lung cancer. […] Individual lung tumors were monitored using micro-computed tomography (microCT) imaging prior to treatment (D0) and 4 days post treatment (D4). […]

[5] = human, in vivo; cited from earlier work

CC(C)C[C@H](NC(=O)[C@H](Cc1ccccc1)NC(=O)c1cnccn1)B(O)O [bortezomib, N-(2-pyrazine) carbonyl-L-phenylalanine-L-leucine boronic acid]
expression of NF-κB target genes MYC, BCL2, XIAP [1]: downregulated | viability and colony formation of resistant cells compared with sensitive cells [2]: higher viability and increased colony formation | tumor volume, short term ([3]; Bortezomib 1 mg/kg): markedly reduced tumor volumes | tumor progression ([3]; Bortezomib 1 mg/kg or Cisplatin 7 mg/kg): diminished tumor progression to a similar extent as cisplatin | survival (KP mice): 104.2 ± 19.8 days | tumor response by the 4th dose ([4]; once a week for 4 weeks, 13 weeks): insensitive to treatment | tumor response after the first dose ([4]; once a week for 4 weeks, twice-weekly microCT, 10.5 weeks): rapid KP tumor regression | average decrease in tumor volume at D4 compared with D0 ([4]; single dose 1 mg/kg i.v., 10 weeks after Adeno-Cre infection, microCT): 55.4% | side effects in the clinic [5]: manageable side effects
